Laboratory results published in publication PMC6199744, “Development of Chemical Proteomics for the Folateome and Analysis of the Kinetoplastid Folateome” (ACS Infectious Diseases, 2018).
Where two headings read alike, the source gives them in different places.

Columns and labels:
Assay type in all cases: binding
[1] = biological target: T1, HeLa cell extract proteins (Homo sapiens, UniProt O15162)
T1 construct: endogenous in cells; host or cells: HeLa cell extract
T1 sequence (O15162 1-318): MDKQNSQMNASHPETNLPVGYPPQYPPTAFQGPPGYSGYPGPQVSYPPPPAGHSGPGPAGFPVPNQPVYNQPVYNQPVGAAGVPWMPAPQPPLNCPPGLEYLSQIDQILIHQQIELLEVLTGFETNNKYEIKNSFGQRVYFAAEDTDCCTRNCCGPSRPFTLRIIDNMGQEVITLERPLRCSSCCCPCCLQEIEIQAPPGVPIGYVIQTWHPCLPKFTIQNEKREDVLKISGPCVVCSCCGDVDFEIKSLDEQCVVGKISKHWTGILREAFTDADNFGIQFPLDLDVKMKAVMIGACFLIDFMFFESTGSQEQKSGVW

[2] = biological target: T2, HeLa cell extract proteins (Homo sapiens, UniProt P13807)
T2 construct: endogenous in cells; host or cells: HeLa cell extract
T2 sequence (P13807 1-737): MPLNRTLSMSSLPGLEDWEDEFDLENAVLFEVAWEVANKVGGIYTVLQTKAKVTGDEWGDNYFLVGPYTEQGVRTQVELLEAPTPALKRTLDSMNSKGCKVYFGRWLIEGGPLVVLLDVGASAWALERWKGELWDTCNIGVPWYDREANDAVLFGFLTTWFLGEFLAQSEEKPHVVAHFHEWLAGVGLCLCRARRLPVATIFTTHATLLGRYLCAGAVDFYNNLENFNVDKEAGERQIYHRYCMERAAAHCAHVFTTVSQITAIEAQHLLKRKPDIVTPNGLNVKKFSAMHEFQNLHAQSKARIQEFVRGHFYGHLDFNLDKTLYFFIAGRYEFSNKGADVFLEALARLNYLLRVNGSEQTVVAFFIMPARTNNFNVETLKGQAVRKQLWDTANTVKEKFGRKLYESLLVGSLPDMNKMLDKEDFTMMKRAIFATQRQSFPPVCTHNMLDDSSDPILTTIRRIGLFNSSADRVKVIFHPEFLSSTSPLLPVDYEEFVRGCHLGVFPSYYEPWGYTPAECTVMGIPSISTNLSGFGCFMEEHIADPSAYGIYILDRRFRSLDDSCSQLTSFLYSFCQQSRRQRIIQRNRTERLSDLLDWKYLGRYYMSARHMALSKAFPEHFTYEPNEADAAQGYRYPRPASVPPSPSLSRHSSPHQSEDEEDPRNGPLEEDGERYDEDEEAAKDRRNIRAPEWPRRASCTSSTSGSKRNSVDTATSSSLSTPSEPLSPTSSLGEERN

[3] = biological target: T3, HeLa cell extract proteins (Homo sapiens, UniProt P14324)
T3 construct: endogenous in cells; host or cells: HeLa cell extract
T3 sequence (P14324 1-419): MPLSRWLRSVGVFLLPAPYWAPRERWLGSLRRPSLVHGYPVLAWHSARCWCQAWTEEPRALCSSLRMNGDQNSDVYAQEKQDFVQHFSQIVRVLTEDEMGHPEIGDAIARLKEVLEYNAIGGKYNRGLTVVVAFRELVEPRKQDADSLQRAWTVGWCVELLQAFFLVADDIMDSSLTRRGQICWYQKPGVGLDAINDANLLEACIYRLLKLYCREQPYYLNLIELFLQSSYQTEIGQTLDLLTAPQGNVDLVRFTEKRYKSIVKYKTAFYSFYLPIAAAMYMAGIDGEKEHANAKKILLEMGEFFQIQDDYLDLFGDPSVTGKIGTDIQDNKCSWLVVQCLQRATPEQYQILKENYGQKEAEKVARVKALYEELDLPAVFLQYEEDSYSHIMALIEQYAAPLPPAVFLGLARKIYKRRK

[4] = biological target: T4, HeLa cell extract proteins (Homo sapiens, UniProt P40925)
T4 construct: endogenous in cells; host or cells: HeLa cell extract
T4 sequence (P40925 1-334): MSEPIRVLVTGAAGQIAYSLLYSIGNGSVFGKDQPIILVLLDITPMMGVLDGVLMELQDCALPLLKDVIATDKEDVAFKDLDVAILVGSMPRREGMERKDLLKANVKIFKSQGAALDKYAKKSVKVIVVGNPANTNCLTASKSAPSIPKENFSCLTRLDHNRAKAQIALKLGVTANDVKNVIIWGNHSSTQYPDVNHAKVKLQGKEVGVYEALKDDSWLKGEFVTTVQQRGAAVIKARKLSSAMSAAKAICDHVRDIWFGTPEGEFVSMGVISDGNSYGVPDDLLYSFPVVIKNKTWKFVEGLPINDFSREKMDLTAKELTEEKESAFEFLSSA

[5] = biological target: T5, HeLa cell extract proteins (Homo sapiens, UniProt Q969X5)
T5 construct: endogenous in cells; host or cells: HeLa cell extract
T5 sequence (Q969X5 1-290): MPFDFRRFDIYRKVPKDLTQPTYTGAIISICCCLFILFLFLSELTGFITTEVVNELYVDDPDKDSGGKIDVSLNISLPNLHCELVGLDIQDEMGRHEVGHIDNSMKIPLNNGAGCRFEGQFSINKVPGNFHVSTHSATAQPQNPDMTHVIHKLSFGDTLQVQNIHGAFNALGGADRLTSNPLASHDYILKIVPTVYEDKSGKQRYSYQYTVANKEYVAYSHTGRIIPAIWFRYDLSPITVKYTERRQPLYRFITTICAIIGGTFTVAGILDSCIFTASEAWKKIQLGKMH

[6] = biological target: T6, HeLa cell extract proteins (Homo sapiens, UniProt Q9UJX4)
T6 construct: endogenous in cells; host or cells: HeLa cell extract

[7] = biological target: T7, HeLa cell extract proteins (Homo sapiens, UniProt Q9Y5Y0)
T7 construct: endogenous in cells; host or cells: HeLa cell extract
T7 sequence (Q9Y5Y0 1-555): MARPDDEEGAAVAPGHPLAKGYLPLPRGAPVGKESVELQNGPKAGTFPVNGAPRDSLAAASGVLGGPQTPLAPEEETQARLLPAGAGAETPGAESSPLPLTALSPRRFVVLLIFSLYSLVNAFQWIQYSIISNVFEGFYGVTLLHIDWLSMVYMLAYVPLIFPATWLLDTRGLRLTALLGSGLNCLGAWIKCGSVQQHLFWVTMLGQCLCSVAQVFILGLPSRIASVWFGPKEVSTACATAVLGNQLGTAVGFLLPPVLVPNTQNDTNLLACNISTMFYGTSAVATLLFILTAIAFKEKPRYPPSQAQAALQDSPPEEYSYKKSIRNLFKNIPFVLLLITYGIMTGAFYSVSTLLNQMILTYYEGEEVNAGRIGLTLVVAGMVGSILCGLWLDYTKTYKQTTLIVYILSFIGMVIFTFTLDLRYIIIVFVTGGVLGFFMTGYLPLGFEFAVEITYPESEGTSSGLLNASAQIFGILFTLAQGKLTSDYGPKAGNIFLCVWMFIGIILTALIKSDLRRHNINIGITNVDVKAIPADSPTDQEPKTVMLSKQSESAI

[8] = HeLa, protein MDH1 (MALATE DEHYDROGENASE, CYTOPLASMIC.)

T6 sequence (Q9UJX4 whole entry): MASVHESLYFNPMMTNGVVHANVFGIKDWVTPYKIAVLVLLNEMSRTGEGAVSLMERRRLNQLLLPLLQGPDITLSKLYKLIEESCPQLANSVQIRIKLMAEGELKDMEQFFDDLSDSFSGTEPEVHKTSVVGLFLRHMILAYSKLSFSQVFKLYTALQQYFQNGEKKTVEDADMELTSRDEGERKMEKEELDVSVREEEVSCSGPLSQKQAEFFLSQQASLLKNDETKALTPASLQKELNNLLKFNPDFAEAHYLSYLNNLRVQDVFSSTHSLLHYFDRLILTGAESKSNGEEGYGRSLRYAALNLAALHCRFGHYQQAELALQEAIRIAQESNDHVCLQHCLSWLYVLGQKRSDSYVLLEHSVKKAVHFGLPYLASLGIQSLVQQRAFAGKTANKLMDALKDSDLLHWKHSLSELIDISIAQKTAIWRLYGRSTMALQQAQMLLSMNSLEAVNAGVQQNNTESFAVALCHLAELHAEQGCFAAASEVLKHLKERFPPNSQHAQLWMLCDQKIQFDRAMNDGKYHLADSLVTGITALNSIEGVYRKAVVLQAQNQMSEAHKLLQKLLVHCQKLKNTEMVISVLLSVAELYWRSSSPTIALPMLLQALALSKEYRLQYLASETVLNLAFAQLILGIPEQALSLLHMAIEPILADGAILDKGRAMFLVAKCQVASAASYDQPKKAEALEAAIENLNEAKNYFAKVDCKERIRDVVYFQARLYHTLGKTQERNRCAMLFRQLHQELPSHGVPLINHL

Row | Compound | fold changes relative to vehicle control ([1]; HeLa, protein PLSCR1) | fold changes relative to vehicle control ([2]; captured protein GYS1, HeLa) | fold changes relative to vehicle control ([3]; protein FDPS, HeLa) | fold changes relative to vehicle control [4, 8] [fold] | fold changes relative to vehicle control ([5]; captured protein ERGIC1, HeLa) | fold changes relative to vehicle control ([6]; captured protein ANAPC5, HeLa) | fold changes relative to vehicle control ([7]; HeLa, protein FLVCR1) | fold changes relative to vehicle control ([1]; HeLa, captured protein PLSCR1) | fold changes relative to vehicle control ([2]; HeLa, protein GYS1) | fold changes relative to vehicle control ([3]; HeLa, captured protein FDPS) | fold changes relative to vehicle control ([4]; HeLa, protein MDH1) | fold changes relative to vehicle control ([5]; protein ERGIC1, HeLa) | fold changes relative to vehicle control ([6]; HeLa, captured protein ANAPC5) | fold changes relative to vehicle control ([7]; protein FLVCR1, HeLa) | also measured
1 | CCCCCCOc1cccc(Cc2cnc(N)nc2N)c1 [compound 2] | 0.86 | 0.84 | 2.08 | 2.15 | 1.02 | 1 | 0.95 |  |  |  |  |  |  |  | 
2 | NCCOCCOCC(=O)Nc1nc2ncc(CNc3ccc(C(=O)NC(CCC(=O)O)C(=O)O)cc3)nc2c(=O)[nH]1 (stereo not shown) [compound 6] |  |  |  |  |  |  |  | 0.96 | 0.98 | 1.29 | 1.42 | 0.86 | 1.05 | 0.62 | 
3 | CCCCCCOc1ccc(Cc2cnc(N)nc2N)cc1 [compound 1] | 1.02 | 0.9 | 1.17 | 1.3 | 0.94 | 1.06 | 0.78 |  |  |  |  |  |  |  | 
4 | Nc1nc2c(c(=O)[nH]1)N(C=O)C(CNc1ccc(C(=O)N[C@@H](CCC(=O)O)C(=O)O)cc1)CN2 (stereo partly shown) [LEU, leucovorin] |  |  |  |  |  |  |  | 1.01 | 0.97 | 1.05 | 1.01 | 0.77 | 1.07 | 0.57 | 
5 | NCCCNc1ccc(C(=O)NC(CCC(=O)O)C(=O)O)cc1 (stereo not shown) [compound 7] |  |  |  |  |  |  |  | 1.07 | 0.98 | 0.97 | 0.93 | 1.31 | 1.1 | 0.57 | 
6 | Nc1nc2[nH]cc(CCc3ccc(C(=O)N[C@@H](CCC(=O)O)C(=O)O)cc3)c2c(=O)[nH]1 [PTX, pemetrexed] |  |  |  |  |  |  |  |  |  |  |  |  |  |  | fold changes relative to vehicle control [1]: 0.96; fold changes relative to vehicle control [2]: 0.94; fold changes relative to vehicle control [3]: 1.08; fold changes relative to vehicle control [4]: 1.2; fold changes relative to vehicle control [5]: 0.85; fold changes relative to vehicle control [6]: 1.07; fold changes relative to vehicle control [7]: 0.59
7 | Nc1nc2cccc(-c3ccccc3)c2n1Cc1ccc(Cl)c(Cl)c1 [compound 3] | 0.98 | 0.93 | 0.87 | 0.87 | 1.1 | 1.07 | 0.75 |  |  |  |  |  |  |  | 
